Results as given in patent US8685969B2, “Carboline carboxamide compounds useful as kinase inhibitors” (Bristol-Myers Squibb Company, priority 2010, dated 2014).

Assays:
[1] = molecular target: T1, human recombinant Btk (Homo sapiens, UniProt Q06187); test: Human Recombinant Btk Enzyme Assay; assay type: biochemical; conditions: human recombinant Btk 1 nM, ATP 20 μM, 60 min room temperature; read-out: IC50 for Inhibition of Btk
T1 construct: purchased Invitrogen Corporation
Protocol: Human Recombinant Btk Enzyme Assay
To V-bottom 384-well plates were added test compounds, human recombinant Btk (1 nM, Invitrogen Corporation), fluoresceinated peptide (1.5 μM), ATP (20 μM), and assay buffer (20 mM HEPES pH 7.4, 10 mM MgCl2, 0.015% Brij35 and 4 mM DTT in 1.6% DMSO), with a final volume of 30 μL. After incubating at room temperature for 60 min, the reaction was terminated by adding 45 μl of 35 mM EDTA to each sample. The reaction mixture was analyzed on the Caliper LABCHIP® 3000 (Caliper, Hopkinton, Mass.) by electrophoretic separation of the fluorescent substrate and phosphorylated product. Inhibition data were calculated by comparison to no enzyme control reactions for 100% inhibition and no inhibitor controls for 0% inhibition. Dose response curves were generated to determine the concentration required inhibiting 50% of kinase activity (IC50). Compounds were dissolved at 10 mM in dimethylsulfoxide (DMSO) and evaluated at eleven concentrations.
Using this assay, the IC50 values of the following compounds were determined.

[2] = test system: Ramos RA1 B cells; test: Ramos FLIPR Assay (intracellular calcium after anti-human IgM stimulation); assay type: cell-based; conditions: Ramos RA1 B cells stimulated with goat anti-human IgM 2.5 μg/mL; peak calcium; read-out: IC50 for Inhibition of Ramos FLIPR assay
Protocol: Ramos RA1 B cells (ATCC CRL-1596) at a density of 2×10^6 cells/ml in RPMI minus phenol red (Invitrogen 11835-030) and 50 mM HEPES (Invitrogen 15630-130) containing 0.1% BSA (Sigma A8577) were added to one half volume of calcium loading buffer (BD bulk kit for probenecid sensitive assays, #640177) and incubated at room temperature in the dark for 1 hour. Dye-loaded cells were pelleted (Beckmann GS-CKR, 1200 rpm, RT, 5 minutes) and resuspended in RT RPMI minus phenol red with 50 mM HEPES and 10% FBS to a density of 1×10^6 cells/ml. 150 μl aliquots (150,000/well) were plated into 96 well poly-D-lysine coated assay plates (BD 35 4640) and briefly centrifuged (Beckmann GS-CKR 800 rpm, 5 minutes, without brake). 50 μl compound dilutions in 0.4% DMSO/RPMI minus phenol red+50 mM HEPES+10% FBS were added to the wells and the plate was incubated at RT in the dark for 1 hour. Assay plate was briefly centrifuged as above prior to measuring calcium levels.
Using the FLIPR1 (Molecular devices), cells were stimulated by adding goat anti-human IgM (Invitrogen AHI0601) to 2.5 μg/mL. Changes in intracellular calcium concentrations were measured for 180 seconds and percent inhibition was determined relative to peak calcium levels seen in the presence of stimulation only.

T1 sequence (Q06187 whole entry): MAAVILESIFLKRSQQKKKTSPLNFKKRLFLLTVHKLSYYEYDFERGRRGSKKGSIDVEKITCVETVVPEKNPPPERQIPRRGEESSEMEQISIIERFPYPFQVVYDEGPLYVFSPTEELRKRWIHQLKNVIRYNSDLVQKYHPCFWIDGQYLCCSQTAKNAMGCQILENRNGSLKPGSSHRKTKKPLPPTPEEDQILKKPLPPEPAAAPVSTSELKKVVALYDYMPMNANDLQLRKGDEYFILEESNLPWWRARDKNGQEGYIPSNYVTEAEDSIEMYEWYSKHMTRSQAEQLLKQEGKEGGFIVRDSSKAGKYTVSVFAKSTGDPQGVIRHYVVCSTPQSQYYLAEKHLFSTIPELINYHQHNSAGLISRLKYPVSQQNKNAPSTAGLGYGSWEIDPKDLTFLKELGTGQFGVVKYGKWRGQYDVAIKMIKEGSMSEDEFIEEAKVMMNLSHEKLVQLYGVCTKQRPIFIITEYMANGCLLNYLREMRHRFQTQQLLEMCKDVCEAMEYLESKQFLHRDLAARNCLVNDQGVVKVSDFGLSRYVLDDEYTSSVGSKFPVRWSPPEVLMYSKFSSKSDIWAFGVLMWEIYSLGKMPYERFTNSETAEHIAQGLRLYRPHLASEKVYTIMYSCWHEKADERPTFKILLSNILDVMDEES

| SMILES | IC50 [1] | IC50 [2] |
| --- | --- | --- |
| Cc1c(-c2cnc(C(N)=O)c3[nH]c4cc(OCCO)ccc4c23)cccc1-n1cnc2ccccc2c1=O [Example 11, 7-(2-Hydroxyethoxy)-4-(2-methyl-3-(4-oxoquinazolin-3(4H)-yl)phenyl)-9H-pyrido[3,4-b]indole-1-carboxamide] | 3 nM | – |
| Cc1c(-c2cnc(C(N)=O)c3[nH]c4cc(C(C)O)ccc4c23)cccc1-n1cnc2ccccc2c1=O (stereo not drawn) [Example 30, 7-(1-Hydroxyethyl)-4-(2-methyl-3-(4-oxoquinazolin-3(4H)-yl)phenyl)-9H-pyrido[3,4-b]indole-1-carboxamide] | 3 nM | 16 nM |
| Cc1c(-c2nnc(C(N)=O)c3[nH]c4cc(OCCO)ccc4c23)cccc1-n1cnc2ccccc2c1=O [Example 34, 7-(2-Hydroxyethoxy)-1-(2-methyl-3-(4-oxoquinazolin-3(4H)-yl)phenyl)-5H-pyridazino[4,5-b]indole-4-carboxamide] | 7 nM | – |
| COCCOc1ccc2c(c1)[nH]c1c(C(N)=O)nc(C)c(-c3cccc(-n4cnc5ccccc5c4=O)c3C)c12 [Example 37, 7-(2-Methoxyethoxy)-3-methyl-4-(2-methyl-3-(4-oxoquinazolin-3(4H)-yl)phenyl)-9H-pyrido[3,4-b]indole-1-carboxamide] | 14 nM | 190 nM |
| Cc1c(-c2ccc(C(N)=O)c3[nH]c4c(c23)CNCC4)cccc1-n1cnc2ccccc2c1=O [Example 42, 9-(2-Methyl-3-(4-oxoquinazolin-3(4H)-yl)phenyl)-2,3,4,5-tetrahydro-1H-pyrido[4,3-b]indole-6-carboxamide] | 521 nM | > 1000 nM |
| NC(=O)c1ncc(-c2ccccc2F)c2c1[nH]c1ccc(F)cc12 [Example 54] | 65 nM | – |
| CN(C)c1ccc(C(=O)Nc2cccc(-c3cnc(C(N)=O)c4[nH]c5cc(C(=O)N6CCOCC6)ccc5c34)c2F)cc1 [Example 55] | 43 nM | – |
| COc1ccc2[nH]c3c(C(N)=O)ncc(-c4ccccc4F)c3c2c1 [Example 56] | 32 nM | – |
| Cc1ccc(C(=O)Nc2cccc(-c3cnc(C(N)=O)c4[nH]c5cc(N6CCOCC6)ccc5c34)c2F)nc1 [Example 60] | 85 nM | – |
| Cc1c(NC(=O)c2ccc(F)cc2)cccc1-c1cnc(C(N)=O)c2[nH]c3cc(N4CCOCC4)ccc3c12 [Example 64] | 8 nM | – |
| Cc1c(NC(=O)N2Cc3ccc(F)cc3C2)cccc1-c1cnc(C(N)=O)c2[nH]c3cc(N4CCOCC4)ccc3c12 [Example 71] | 3 nM | 71 nM |
| NC(=O)c1ncc(-c2cccc(NC(=O)N3Cc4ccc(F)cc4C3)c2F)c2c1[nH]c1cc(N3CCOCC3)ccc12 [Example 73] | – | 1030 nM |
| NC(=O)c1ncc(-c2cccc(N3Cc4ccc(Cl)cc4C3=O)c2F)c2c1[nH]c1cc(N3CCOCC3)ccc12 [Example 77] | – | 81 nM |
| COCCOc1ccc2c(c1)[nH]c1c(C(N)=O)ncc(-c3cccc(-n4cnc5c(F)cccc5c4=O)c3C)c12 [Example 87] | 7 nM | 63 nM |
| Cc1c(-c2cnc(C(N)=O)c3[nH]c4cc(OCCO)ccc4c23)cccc1-n1cnc2ccc(F)cc2c1=O [Example 90] | – | 84 nM |
| Cc1c(-c2cnc(C(N)=O)c3[nH]c4cc(N5CCOCC5)ccc4c23)cccc1-n1cnc2c(F)cccc2c1=O [Example 97] | – | 15 nM |
| Cc1c(-c2ccc(C(N)=O)c3[nH]c4cc(C(=O)N(C)C)ncc4c23)cccc1-n1cnc2ccccc2c1=O [Example 117] | 23 nM | 294 nM |

More lines, now with the values ahead:

| IC50 [1] | IC50 [2] | SMILES |
| --- | --- | --- |
| 2 nM | – | COCCOc1ccc2c(c1)[nH]c1c(C(N)=O)ncc(-c3cccc(N4Cc5ccc(Cl)cc5C4=O)c3C)c12 [Example 9, 4-(3-(6-Chloro-1-oxoisoindolin-2-yl)-2-methylphenyl)-7-(2-methoxyethoxy)-9H-pyrido[3,4-b]indole-1-carboxamide] |
| – | 71 nM | COc1ccc2c(c1)C(=O)N(c1cccc(-c3cnc(C(N)=O)c4[nH]c5cc(C(C)O)ccc5c34)c1C)C2 (stereo not drawn) [Example 31, 7-(1-Hydroxyethyl)-4-(3-(6-methoxy-1-oxoisoindolin-2-yl)-2-methylphenyl)-9H-pyrido[3,4-b]indole-1-carboxamide] |
| 7 nM | – | COCCOc1ccc2c(c1)[nH]c1c(C(N)=O)nnc(-c3cccc(N4Cc5ccc(Cl)cc5C4=O)c3C)c12 [Example 32, 1-(3-(6-Chloro-1-oxoisoindolin-2-yl)-2-methylphenyl)-7-(2-methoxyethoxy)-5H-pyridazino[4,5-b]indole-4-carboxamide] |
| 57 nM | 1380 nM | COc1ccc2c(c1)C(=O)N(c1cccc(-c3nnc(C(N)=O)c4[nH]c5cc(C(C)=O)ccc5c34)c1C)C2 [Example 35, 7-Acetyl-1-(3-(6-methoxy-1-oxoisoindolin-2-yl)-2-methylphenyl)-5H-pyridazino[4,5-b]indole-4-carboxamide] |
| 3 nM | – | COc1ccc2c(c1)C(=O)N(c1cccc(-c3nnc(C(N)=O)c4[nH]c5cc(C(C)(C)O)ccc5c34)c1C)C2 [Example 36, 7-(2-Hydroxypropan-2-yl)-1-(3-(6-methoxy-1-oxoisoindolin-2-yl)-2-methylphenyl)-5H-pyridazino[4,5-b]indole-4-carboxamide] |
| 6 nM | > 500 nM | Cc1c(-c2ncc(C(N)=O)c3[nH]c4cc(C(C)(C)O)ccc4c23)cccc1N1Cc2ccc(F)cc2C1=O [Example 41, 1-(3-(6-Fluoro-1-oxoisoindolin-2-yl)-2-methylphentl)-7-(2-hydroxypropan-2-yl)-5H-pyrido[4,3-b]indole-4-carboxamide] |
| – | 856 nM | Cc1c(-c2cnc(C(N)=O)c3[nH]c4cc5c(cc4c23)OCO5)cccc1N1Cc2ccc(Cl)cc2C1=O [Example 79] |
| – | 1080 nM | COCCOc1ccc2c(c1)[nH]c1c(C(N)=O)ncc(-c3cccc(N4Cc5ccc(OC)cc5C4=O)c3F)c12 [Example 82] |
| – | 1420 nM | COCCOc1ccc2c(c1)[nH]c1c(C(N)=O)ncc(-c3cccc(N4Cc5ccc(F)cc5C4=O)c3F)c12 [Example 85] |
| – | 56 nM | Cc1c(-c2cnc(C(N)=O)c3[nH]c4cc(N5CCOCC5)ccc4c23)cccc1N1Cc2ccc(Cl)cc2C1=O [Example 92] |
| 8 nM | – | Cc1c(-c2nnc(C(N)=O)c3[nH]c4cc(OCCO)ccc4c23)cccc1N1Cc2ccc(Cl)cc2C1=O [Example 99] |
| – | 19 nM | Cc1c(-c2nnc(C(N)=O)c3[nH]c4cc(C(C)(C)O)ccc4c23)cccc1N1Cc2ccc(Cl)cc2C1=O [Example 100] |
| 14 nM | 96 nM | Cc1c(-c2ccc(C(N)=O)c3[nH]c4cnc(C(C)(C)O)cc4c23)cccc1-n1cnc2cccc(F)c2c1=O [Example 110] |
